# Measurements taken from patent US20260242410A1, “CRYSTALLINE FORMS OF A NEUROACTIVE STEROID” (Sage Therapeutics, Inc., priority 2022, published 2026).
# Test: Stability of the crystalline solvate form on drying, followed by XRPD
# Format: physicochemical
# Procedure: XRPD analyses were performed using a PANalytical X′pert pro with PIXcel detector (128 channels), scanning the samples between 3 and 35° 20. Solid Compound (1) was gently ground to release any agglomerates and loaded onto a multi-well plate with a Mylar polymer film to support the sample. The multi-well plate was then placed into the diffractometer and analyzed using Cu K radiation (a1 λ=1.54060 Å; a2=1.54443 Å; β=1.39225 Å; a1: a2 ratio=0.5) running in transmission mode (step size 0.0130° 20, step time 18.87s) using 40 kV/40 mA generator settings. Data were visualized and images generated using the HighScore Plus 4.7 desktop application (PANalytical, 2017). The 20 position was calibrated using alumina powder reference standard on a monthly basis.
# 100 mg of anhydrous Compound (1) was temperature cycled in 600 μL of acetone for 24 hours. Accordingly, 600 μL of acetone was added in 200 μL aliquots to a vile containing 100 mg of anhydrous Compound (1), to form a movable slurry. The vile was then capped, wrapped in parafilm and temperature cycled in an incubator shaker between ambient temperature and 40° C. with a 4 hour hold at each temperature. After 24 hours, the solid Compound (1) Acetone Solvate Form was isolated by centrifugation.
# Approximately 200 mg of anhydrous Compound (1) was weighed into a scintillation vial and 1 mL of DMSO added to form a slurry. The slurry was then temperature cycled between ambient temperature and 40° C. in 4 hour cycles for 48 hours. After this time, the sample was dried in a 40° C. oven. On removal from the oven, the sample remained wet, so the sample was isolated by centrifuge filtration and then dried under vacuum at ambient conditions over night. After drying, the sample was reanalyzed by XRPD to be Compound (1) DMSO Solvate Form.
# FIG. 4 depicts a non-normalized X-ray powder diffraction pattern for Compound (1) DMSO Solvate Form. The XRPD pattern was stable on drying under vacuum.
Compound,"Crystallinity / XRPD pattern after gentle drying (72 hours gentle drying at ambient temperature (no vacuum), repreparation by temperature cycling)",Solid form obtained after complete drying (complete drying of the product),Crystallinity / XRPD pattern after gentle drying (drying at 40° C. for 24 hours),XRPD pattern stability on drying (drying under vacuum)
COC[C@@]1(O)CC[C@H]2[C@@H](CC[C@@H]3[C@@H]2CC[C@]2(C)[C@@H](C(=O)Cn4nnc(C)n4)CC[C@@H]32)C1 [Compound (1) Acetone Solvate Form],"the XRPD pattern had not changed, there was a significant drop in crystallinity",produces crystalline anhydrous Compound (1),"significant loss in crystallinity, but negligible change in the XRPD pattern",–
COC[C@@]1(O)CC[C@H]2[C@@H](CC[C@@H]3[C@@H]2CC[C@]2(C)[C@@H](C(=O)Cn4nnc(C)n4)CC[C@@H]32)C1 [Compound (1) DMSO Solvate Form],–,–,–,stable
